The numbers were not newly measured in patent EP2074993A1, “Venlafaxine-containing film-coated modified-release tablets” (Biovail Laboratories International S.r.l., priority 2007, dated 2009), which cites them from elsewhere.

The conditions of this series: in vivo.

SMILES strings stand for the structures.

As for `CN(C)CC(c1ccc(O)cc1)C1(O)CCCCC1` (centres unmarked) [O-desmethylvenlafaxine], the elimination half-life entry is reported as “about 8 hours”.
`COc1ccc(C(CN(C)C)C2(O)CCCCC2)cc1` (racemic) [Venlafaxine, (R/S)-1-[2-(dimethylamino)-1-(4-methoxyphenyl)ethyl]cyclohexanol]: the elimination half-life result is given as “about 4 hours”.
